Measurements from patent US20260250318A1, “COMPOSITIONS AND METHODS FOR CROSSING THE BLOOD BRAIN BARRIER” (VOYAGER THERAPEUTICS, INC., priority 2022, published 2026).

Test system: brains, heart, liver, muscle, and DRG of the NHPs
Experiment: Maturation of TTM-001 and TTM-002 capsids, NGS enrichment in NHP tissues
Type: in vivo
From the text: This Example describes maturation of the AAV9 capsid variants, TTM-001 (SEQ ID NO: 981 (amino acid) and 983 (DNA), comprising SEQ ID NO: 941 (encoded by SEQ ID NO: 942)) and TTM-002 (SEQ ID NO: 982 (amino acid) and 984 (DNA), comprising SEQ ID NO: […] (encoded by SEQ ID NO: 944)) in NHPs to further enhance their transduction and biodistribution in the central nervous system as well as other tissues, and evolve the AAV capsid variants to provide further cross-species compatibility. Two approaches were used to mature the TTM-001 and TTM-002 capsid sequences in order to randomize and mutate within and around the peptide insert comprised within loop IV of the capsid variant. […] In the first maturation approach, sets of three contiguous amino acids were randomized across the mutagenesis region in the TTM-001 and TTM-002 sequences, which spanned from position 450 to position 466, numbered according to SEQ ID NO: 981 and 982. In the second maturation approach, mutagenic primers were used to introduce point mutations at a low frequency, scattered across the mutagenesis region in the TTM-001 and TTM-002 sequences ranging from position 449 to position 466, numbered according to SEQ ID NO: 981 and 982. AAV capsid variants arising from each maturation approach for TTM-001 and TTM-002 were pooled together, for subsequent testing and characterization in NHPs.
The library of pooled matured AAV capsid variants generated using the first maturation approach and the second maturation approach for the TTM-001 and TTM-002 AAV capsid variants were injected into two NHPs. […] Following RNA recovery and RT-PCR amplification, a systematic NGS enrichment analysis was performed to calculate the fold enrichment ratio relative to an AAV9 control, and the peptides comprised within the variants were identified.
Following the RNA recovery and NGS analysis from the second maturation approach, approximately 680,000 capsid variants were identified. The 680,000 matured capsid variants were then filtered based on samples with a raw virus count greater than 10 and a coefficient of variance (CV) of less than 1, which was calculated for each peptide across the brain samples taken from the two NHPs. […] Using this filtering criteria, this led to approximately 64,000 matured capsid variants.

[1] = NHP DRG, NGS, relative to AAV9 control
[2] = NHP brain, NGS, relative to AAV9 control
[3] = NHP heart, NGS, relative to AAV9 control
[4] = NHP liver DNA, NGS, relative to AAV9 control
[5] = NHP liver RNA, NGS, TTM-001 and TTM-002 matured AAV capsid variants, relative to AAV9 control
[6] = NHP muscle, NGS, relative to AAV9 control

Row | Sequence | Fold Enrichment relative to AAV9, DRG (NHP) [1] | Fold Enrichment relative to AAV9, Brain (NHP) [2] | Fold Enrichment relative to AAV9, Heart (NHP) [3] | Fold Enrichment relative to AAV9, Liver DNA (NHP) [4] | Fold Enrichment relative to AAV9, Liver RNA (NHP) [5] | Fold Enrichment relative to AAV9, Muscle (NHP) [6] | Fold Enrichment relative to AAV9, DRG (NHP) (NGS fold-enrichment, DRG, NHP, relative to AAV9) | Fold Enrichment relative to AAV9, Brain (NHP) (NGS fold-enrichment, brain, NHP, relative to AAV9) | Fold Enrichment relative to AAV9, Heart (NHP) (NGS fold-enrichment, heart, NHP, relative to AAV9) | Fold Enrichment relative to AAV9, Liver DNA (NHP) (NGS fold-enrichment, liver DNA, NHP, relative to AAV9) | Fold Enrichment relative to AAV9, Liver RNA (NHP) (NGS fold-enrichment, liver RNA, NHP, relative to AAV9) | Fold Enrichment relative to AAV9, Muscle (NHP) (NGS fold-enrichment, muscle, NHP, relative to AAV9)
1 | KTINGSGSPHSSCTNQQT | 0.000 fold | 0.000 fold | 0.000 fold | 3.363 fold | 11.382 fold | 0.000 fold | – | – | – | – | – | –
2 | KTINGSGSPHSTCLNQQT | 0.000 fold | 0.000 fold | 0.000 fold | 4.762 fold | 11.132 fold | 0.000 fold | – | – | – | – | – | –
3 | KTINGSGSPHSTTCNQQT | 0.000 fold | 0.000 fold | 0.000 fold | 3.315 fold | 23.771 fold | 0.000 fold | – | – | – | – | – | –
4 | KTINGSGSPHSVFENQQT | – | – | – | – | – | – | 0.000 fold | 0.000 fold | 0.000 fold | 0.224 fold | 10.218 fold | 0.000 fold
5 | KTINGSGSPHSVKKNQQT | 0.000 fold | 0.000 fold | 0.000 fold | 3.908 fold | 48.475 fold | 0.000 fold | – | – | – | – | – | –
6 | KTINGSGSPHSVRCNQQT | 0.000 fold | 0.000 fold | 0.000 fold | 3.912 fold | 15.860 fold | 0.000 fold | – | – | – | – | – | –
7 | KTINGSGSPHSVRYNQQT | 0.000 fold | 0.000 fold | 0.000 fold | 1.413 fold | 16.390 fold | 0.000 fold | – | – | – | – | – | –
8 | KTINGSGSPHSWAPNQQT | 0.000 fold | 0.000 fold | 0.000 fold | 1.789 fold | 47.897 fold | 0.000 fold | – | – | – | – | – | –
9 | KTINGSGSPHSWLKNQQT | 0.000 fold | 0.000 fold | 0.000 fold | 0.603 fold | 13.995 fold | 0.000 fold | – | – | – | – | – | –
10 | KTINGSGSPHSYAFNQQT | 0.000 fold | 0.000 fold | 0.000 fold | 1.742 fold | 43.037 fold | 0.000 fold | – | – | – | – | – | –
11 | KTINGSGSPHSYARNQQT | 0.000 fold | 0.000 fold | 0.000 fold | 0.996 fold | 11.131 fold | 0.000 fold | – | – | – | – | – | –
12 | KTINGSGSPHSYLVNQQT | 0.000 fold | 0.000 fold | 0.000 fold | 1.267 fold | 17.766 fold | 0.000 fold | – | – | – | – | – | –
13 | KTINGSGSPHSYMRNQQT | 0.000 fold | 0.000 fold | 0.000 fold | 2.293 fold | 20.007 fold | 0.000 fold | – | – | – | – | – | –
